Measurements reported in US20110218107A1 (priority 2010, published 2011).
Read-outs that look alike come from different tables or passages of the source.

Assays:
vines = conditions: cited from earlier work
[1] = tested on: tomato plants of the cultivar "Harzfeuer"; assay: Greenhouse test tomato under zinc deficiency: plant weight and plant height; format: in vivo; conditions: 0% Zn supply
Method: (§1) Greenhouse experiments (Examples A and B) were carried out to evaluate the effect of fungicide applications on the growth and development of plants cultivated under Zn deficiency, in particular the effect of Propineb and Mancozeb on the growth and development of banana and tomato plants. Banana plants and tomato plants of the cultivar “Harzfeuer” were cultivated on rock wool at different zinc regimes, 100% and 0% zinc level, with and without Propineb or Mancozeb applications.
(§2) Tomato on rock wool has been sowed and approximately after 3 weeks, the plants have been transferred to rock wool bags. After the specified intervals the plants have been treated either 2 times preventive or one time curative and have been fertilized with a modified Hoagland solution which contained 100% or 0% zinc and having the composition as given below. Propineb and Mancozeb were applied. The fertilization was carried out in combination with the irrigation, using a drip application system.
Propineb has been applied through spray application of commercially available Antracol 70WG solution (conc. 0.15% Propineb). Mancozeb has been applied as commercially available Dithane NeoTec® 75WG (conc. 0.15% Mancozeb). Preventive treatments with Propineb or Mancozeb were carried out 27 days and 57 days (Treatment No. 3 and Treatment No. 5) after sowing. Curative applications of Propineb or Mancozeb were carried out 95 days (Treatment No. 4 and Treatment No. 6) after sowing according to the following regime:
The effect of preventive and curative treatments of Propineb and Mancozeb on the growth and development of tomato plants was evaluated by measuring the plant weight and plant height. The assessment of Treatment No. 3 and Treatment No. 5 was carried out 95 days after sowing. The morphological assessment of Treatment No. 4 and Treatment No. 6 was carried out 132 days after sowing.

banana plants [2] = assay: Greenhouse test banana under zinc deficiency: leaf size and leaf weight; format: in vivo; conditions: 0% Zn supply
Method: as §1
as §2, with “Banana on” for “Tomato on”, “treated” for “treated either”, “curative with Propineb and/or” for “curative and”, “below.” for “below. Propineb and Mancozeb were applied.”
(§3) Propineb has been applied through spray application of commercially available Antracol 70WG solution (conc. 0.15% Propineb). Preventive treatments with Propineb were carried out 34 days and 57 days (Treatment No. 3) after sowing. Curative application of Propineb was carried out 85 days (Treatment No. 4) after sowing according to the following regime:
(§4) The effect of preventive and curative Propineb treatments on the growth and development of banana plants was evaluated by measuring the leaf size, leaf weight and the chlorophyll a fluorescence using a Handy PEA system. The assessment of Treatment No. 3 was carried out 101 days after sowing. The morphological assessment of Treatment No. 4 was carried out 121 days after sowing. The chlorophyll a fluorescence was measured 13 and 28 days after the curative application of Propineb.

banana plants [3] = assay: Greenhouse test banana under zinc deficiency: chlorophyll a fluorescence (Handy PEA); format: in vivo; conditions: 0% Zn supply, curative treatment
Method: as §1
as §2, with “Banana on” for “Tomato on”, “treated” for “treated either”, “curative with Propineb and/or” for “curative and”, “below.” for “below. Propineb and Mancozeb were applied.”
as §3, §4
Fv/Fm: Fv/Fm is a parameter widely used to indicate the maximum quantum efficiency of photosystem II(PSII) This parameter is widely considered to be a selective indication of plant photosynthetic performance with healthy samples typically achieving a maximum Fv/Fm value of approx. 0.85. Values lower than this will be observed if a sample has been exposed to some type of biotic or abiotic stress factor which has reduced the capacity for photo-chemical quenching of energy within PSII. Fv/Fm is presented as a ratio of variable fluorescence (Fv) over the maximum fluorescence value (Fm). The Performance Index is essentially an indicator of sample vitality. (See e.g. Advanced Techniques in Soil Microbiology, 2007, 11, 319-341; Applied Soil Ecology, 2000, 15, 169-182.)

[4] = curative spray 95 days after sowing (conc. 0.15%), assessed 132 days after sowing
[5] = preventive spray 27 and 57 days after sowing (conc. 0.15%), assessed 95 days after sowing
[6] = curative spray 85 days after sowing (0.15% Propineb), assessed 121 days after sowing
[7] = preventive spray 34 and 57 days after sowing (0.15% Propineb), assessed 101 days after sowing
[8] = 1st measurement (13 days after curative application)
[9] = 2nd measurement (28 days after curative application)

## S=C(S)NCCNC(=S)S [Zineb]
vines; vines, ISHS Acta Horticulturae 1987, 199, 157-161
  yield and growth compared to untreated vines: significantly greater yield and growth

## O=S(=O)([O-])[O-].[Zn+2] [zinc sulfate]
vines; in vivo
  yield and growth compared to untreated vines: significantly greater yield and growth

## Mancozeb
[1]; [4]
  Plant weight: 409 g
[1]; [5]
  Plant height: 64
  Plant weight: 249 g

## Propineb
Banana plants [2]; [6]
  Leaf size: 2101 ± 612 cm^2
  Leaf weight: 90 g
Banana plants [2]; [7]
  Average leaf size: 2062 ± 284 cm^2
  Average leaf weight: 76 g
Banana plants [3]; [8]
  Fv/Fm: 0.82
  Performance index: 2.21
Banana plants [3]; [9]
  Fv/Fm: 0.83
  Performance index: 2.69
[1]; [4]
  Plant weight: 568 g
[1]; [5]
  Plant height: 76
  Plant weight: 341 g
